Tests used:
[1] = tested on: colon cancer cell line DLD-1; assay: Real-time single cell migration imaging (HoloMonitor M4), DLD-1; type: cell-based, human; conditions: DLD-1, 24 hours, FIG. 7
Method: (§1) An effect of a drug on migration of single cells was confirmed using HoloMonitor M4 (Phase Holographic Imaging), real-time cell migration imaging and analysis equipment. All experiments were performed within a 37° C. cell incubator to analyze cell migration while cells were alive for a long time. To prevent water vapor generated during cell imaging for a long time from obstructing the imaging, the experiment was conducted by dividing cells in an m-slide microcopy chamber (Ibidi). In order to analyze migration of single cells, cells (2.5×10^5 cells/mL) to be analyzed were divided to the m-slide microscopy chamber by 0.2 mL and cultured for more than 12 hours. The cells were sufficiently attached to its original shape and then treated with the drug, and a position to be analyzed was specified, and then the cell migration was measured in real time.
(§2) The cell migration was measured for 24 hours at five-minute intervals, and migration of 25 cells per group was analyzed. Using the HoloMonitor tracking software, a total distance migrated by the cells during the time measured, a linear distance from the starting point to the arrival point, a rate of migration, and a direction were quantitatively analyzed, and the migration of single cells was visualized with a Wind-Rose plot (FIG. 7).

normal cell line MCF-10A = assay: Real-time single cell migration imaging (HoloMonitor M4), MCF-10A; type: cell-based; conditions: 24 hours, FIG. 7
Method: as §1, §2

[2] = tested on: human melanoma cell line A375P; assay: Lamellipodia formation inhibition (confocal microscope), A375P; type: cell-based; conditions: A375-p, 6 hours, FIG. 9
Method: (§3) A human colon cancer cell line DLD-1, a human pancreatic cancer cell line AsPc-1, a human melanoma cell line A375P, and normal cells MCF10A were each cultured to 1×10^5 cell density on a 35 mm high-m dish plate (ibid GmbH). The cells attached to the plate were washed with phosphate buffered saline (PBS) and then treated with DMSO or CG-618 dissolved in DMSO for 6 hours. After removing the cell culture medium from the plate, the plate was washed two times with PBS and treated with 4% paraformaldehyde dissolved in PBS at room temperature for 10 minutes to immobilize the cells. The plate was washed with PBS once and then treated with 0.2% Triton X-100 at room temperature for 10 minutes to enhance cell permeability. The plate was washed with PBS and treated with 1% BSA dissolved in PBS at room temperature for 1 hour to block non-specific bonds. In order to check the distribution in cells of filament actin (F-actin), phalloidin bound with Alexa Fluor 488, which was specifically bound with F-actin, was treated at room temperature for 15 minutes. The plate was washed with PBS three times and then treated with 2 mg/mL 4′,6′-diamidino-2-phenylindole (DAPAI) dissolved in PBS for two minutes at room temperature to dye the nucleus. The plate was washed with PBS three times and filled with 1 mL PBS. […] The obtained images were analyzed by an analysis program (LSM Version 3.2 software).

normal cells MCF10A = assay: Lamellipodia formation (confocal microscope), MCF10A; type: cell-based; conditions: normal cell line MCF-10A, 6 hours, FIG. 9
Method: as §3

lung cancer cells A549 = assay: Trans-well cancer cell migration inhibition, A549; type: cell-based; conditions: A549, concentration not given, FIG. 3
Method: In order to analyze cancer cell migration inhibitory activity of CG-608, CG-609 or CG-618 prepared in Examples 1, 2, or 9, cell migration inhibitory activity was measured using a trans-well by targeting a colon cancer cell line DLD-1 (ATCC-CCL-221), pancreatic cancer cell lines AsPc-1 (ATCC-CCL-1682). CFPAC-1 (ATCC-CCL-1918). Panc-1 (ATCC-CCL-1469), and Miapaca-2 (ATCC-CCL-1420), a skin cancer cell line A375-P (ATCC-CCL-3224), lung cancer cell lines HCC-827 (ATCC-CCL-2868), A549 (ATCC-CCL-185), and NCI-H460 (ATCC-CCL-177), a prostate cancer cell line DU145 (ATCC-HTB-81), a stomach cancer cell line NuGC-3 (JCRB0822), and an ovarian cancer cell line SKOV-3 (ATCC-HTB-77).
First, the number of DLD-1 cells was measured using a hemocytometer in an RPMI medium without FBS. […] After culture, […] of crystal violet (5 mg/mL of 20% […] was added to each well of the 24-well plate and the trans-well was dyed at room temperature for 30 minutes. The dyed trans-well was washed with PBS and non-migrated cells were wiped off with cotton swabs. The prepared sample was photographed with an inverted microscope mounted with a digital camera (TE 300, Nikon. Japan) and then the number of migrated cells was counted. The degree of inhibiting cell migration was calculated by Equation 1 for a group treated with the sample compared to a control group (DMSO). […]

| SMILES | Migration of single cancer cells (real-time imaging) [1] | Migration of single normal cells (real-time imaging) (normal cell line MCF-10A) | Formation of lamellipodia [2] | Formation of lamellipodia (normal cells MCF10A) | Inhibition of cell migration (lung cancer cells A549) |
| --- | --- | --- | --- | --- | --- |
| CC1CCCCN1C(C)COc1ccccc1Cc1ccccc1 (racemic) [CG-618, 1-(1-(2-benzylphenoxy)propan-2-yl)-2-methylpiperidine] | strongly inhibited | increased | inhibits formation of lamellipodia | has no effect |  |
| C[C@H](COc1ccccc1Cc1ccccc1)N1CCCC[C@@H]1C [CG-609, (S)-1-((R)-1-(2-benzylphenoxy)propan-2-yl)-2-methylpiperidine] |  |  |  |  | ≥ 50% |
